ChEMBL document CHEMBL2029260, “Structural basis of selective inhibition of human tankyrases” (J Med Chem, 2012)

molecular target: T1, Poly [ADP-ribose] polymerase tankyrase-2 (Homo sapiens, UniProt Q9H2K2); assay: Activity of N-terminus hexaHis-tagged human TNSK2 expressed in Escherichia coli BL21 (DE3) cells using biotinylated NAD+ as substrate after 90 mins by Western blot analysis
T1 sequence (Q9H2K2 whole entry): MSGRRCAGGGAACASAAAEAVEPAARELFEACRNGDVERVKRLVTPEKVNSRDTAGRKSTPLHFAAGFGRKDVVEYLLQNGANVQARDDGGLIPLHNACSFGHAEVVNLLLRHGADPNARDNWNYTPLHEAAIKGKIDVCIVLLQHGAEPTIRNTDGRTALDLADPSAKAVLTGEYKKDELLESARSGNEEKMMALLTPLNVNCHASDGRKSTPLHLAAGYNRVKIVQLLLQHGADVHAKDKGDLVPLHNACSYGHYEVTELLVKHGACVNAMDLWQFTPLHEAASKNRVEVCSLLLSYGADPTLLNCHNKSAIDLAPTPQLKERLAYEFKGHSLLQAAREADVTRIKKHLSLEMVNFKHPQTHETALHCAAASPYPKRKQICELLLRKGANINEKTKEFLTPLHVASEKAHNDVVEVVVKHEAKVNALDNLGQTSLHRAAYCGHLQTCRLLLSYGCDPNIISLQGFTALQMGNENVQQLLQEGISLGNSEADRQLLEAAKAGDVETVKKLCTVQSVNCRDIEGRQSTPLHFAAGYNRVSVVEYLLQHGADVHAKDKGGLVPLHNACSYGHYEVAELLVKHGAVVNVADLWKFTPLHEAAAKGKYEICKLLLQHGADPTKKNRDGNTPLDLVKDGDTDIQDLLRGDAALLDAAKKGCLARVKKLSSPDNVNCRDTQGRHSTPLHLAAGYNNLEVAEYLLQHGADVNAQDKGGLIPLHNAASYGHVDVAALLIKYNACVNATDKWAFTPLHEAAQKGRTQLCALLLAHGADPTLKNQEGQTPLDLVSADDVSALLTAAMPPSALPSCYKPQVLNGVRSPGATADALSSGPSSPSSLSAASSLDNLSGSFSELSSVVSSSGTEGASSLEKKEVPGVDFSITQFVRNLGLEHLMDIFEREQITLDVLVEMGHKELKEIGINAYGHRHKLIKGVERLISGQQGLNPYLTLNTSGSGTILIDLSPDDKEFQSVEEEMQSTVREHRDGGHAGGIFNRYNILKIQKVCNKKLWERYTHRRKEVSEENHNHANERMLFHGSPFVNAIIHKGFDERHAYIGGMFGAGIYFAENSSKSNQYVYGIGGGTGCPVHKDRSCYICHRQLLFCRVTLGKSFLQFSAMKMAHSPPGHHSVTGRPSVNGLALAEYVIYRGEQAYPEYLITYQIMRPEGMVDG

SMILES	EC50 [µM]
O=C(Nc1ccccc1)c1ccc(N2C(=O)[C@@H]3[C@H](C2=O)[C@@H]2C=C[C@H]3C2)cc1	> 25
O=C(NCc1ccccc1)c1ccc(N2C(=O)[C@@H]3[C@H](C2=O)[C@@H]2C=C[C@H]3C2)cc1	20
O=C(NC1CCCCC1)c1ccc(N2C(=O)[C@@H]3[C@H](C2=O)[C@@H]2C=C[C@H]3C2)cc1	> 25

Stronger by EC50, values ahead:

EC50 [µM]	SMILES
2	CO[C@H]1CCCC[C@@H]1NC(=O)c1ccc(N2C(=O)[C@@H]3[C@H](C2=O)[C@@H]2C=C[C@H]3C2)cc1
1	O=C(Nc1ccc(Br)cc1)c1ccc(N2C(=O)[C@@H]3[C@H](C2=O)[C@@H]2C=C[C@H]3C2)cc1
10	O=C(NCc1ccncc1)c1ccc(N2C(=O)[C@@H]3[C@H](C2=O)[C@@H]2C=C[C@H]3C2)cc1
